Publication PMC2581804, “Mycobacterium tuberculosis Glucosyl-3-Phosphoglycerate Synthase: Structure of a Key Enzyme in Methylglucose Lipopolysaccharide Biosynthesis” (PLoS ONE, 2008)

Target: M. tuberculosis GpgS (glucosyl-3-phosphoglycerate synthase) (Mycobacterium tuberculosis, UniProt P9WMW9)
Sequence (P9WMW9 whole entry): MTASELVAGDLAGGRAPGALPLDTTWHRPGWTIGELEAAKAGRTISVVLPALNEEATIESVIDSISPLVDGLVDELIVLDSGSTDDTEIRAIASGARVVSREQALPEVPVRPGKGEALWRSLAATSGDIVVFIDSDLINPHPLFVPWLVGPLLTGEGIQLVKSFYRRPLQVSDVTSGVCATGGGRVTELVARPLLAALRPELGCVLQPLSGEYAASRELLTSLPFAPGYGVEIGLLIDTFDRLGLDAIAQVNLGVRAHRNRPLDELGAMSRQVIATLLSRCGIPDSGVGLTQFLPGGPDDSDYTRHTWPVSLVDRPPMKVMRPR

## O=C(O)[C@H](O)COP(=O)(O)O [3-phosphoglycerate]
  X-ray crystal structure of ternary complex, 2.7 A (co-crystallization): there is clear electron density for the carboxylate region of the bound 3-phosphoglycerate
